# Entries after “also recorded” stand apart in the source; their conditions may differ.
# Experiments:
# [1] = test system: chronic 2K,1C Goldblatt rats; assay: Acute interventions in anesthetized chronic 2K,1C rats twelve months after clipping: MAP, cortical blood flow and renal pO2 of the clipped kidney; type: in vivo, Sprague-Dawley rats
# Protocol: (§1) As described in Welch et al., Hypertension, 41:692-696 (2003) and Palm et al., Hypertension, 51:345-351 (2008), young male Sprague-Dawley rats (80-100 g) were anesthetized with isoflurane (0.5-1.5%). A silver clip (0.2 mm) was placed around the left renal artery (2K,1C). Age-matched rats were used as controls (sham).
# (§2) All rats received hydralazine+hydrochlorothiazide+reserpine (HHR; 30+10+0.2 mg·kg^−1·day^−1) in the drinking water as described in Welch et al., Kidney Int., 63:202-208 (2003) in order to maximize survival of the clipped rats. The HHR treatment was discontinued 14 days prior to undergoing the protocol described hereinafter.
# Twelve months after clipping, all rats were anesthetized with Inactin (100 mg·kg^−1 i.p.; Sigma-Aldrich, St. Louis, Mo.), and an endotracheal tube was inserted for spontaneous respiration. Rats were prepared according to the protocol described in Palm et al., Hypertension, 51:345-351 (2008). Briefly, the left femoral artery was catheterized for monitoring mean arterial blood pressure (MAP) and the left femoral vein for infusion of saline (5 ml·kg bw^−1·h^−1). The left kidney was immobilized in a plastic cup while renal cortical pO2 and cortical blood flow (CBF) were measured with O2 microelectrodes (Unisense, Aarhus, Denmark) and laser-Doppler needle probes (Transonic Systems Inc, Ithaca, N.Y.) as described in Palm et al., Diabetologia, 46:1153-1160 (2003); Palm et al., Hypertension, 51:345-351 (2008); and Liss et al., Pflügers Arch., 434:705-711 (1997).
# Measurements in 2K,1C rats were made before and after injections of PD-123,319 (1 mg·kg bw^−1 bolus+1 mg·kg bw^−1·h^−1; Sigma Aldrich) followed 30 minutes later by either enalaprilat (0.3 mg·kg bw^−1 bolus+0.3 mg·kg bw^−l·h^−1; Novaplus 1.25 mg·m^−1; Baxter Healthcare Corporation, Deerfield, Ill.) or tempol (174 μmmol·kg bw^−1 bolus+174 μmmol·kg bw^−1·h^−1; Sigma Aldrich) followed 30 minutes later by enalaprilat or candesartan (1 mg·kg bw^−1 bolus+1 mg·kg bw^−1·h^−1; provided by Astra Zeneca, Södertälje Sweden) followed after 30 minutes by enalaprilat. […] See e.g., Duke et al., Br. J. Pharmacol., 144:486-492 (2005).
# The data in Example 1 was analyzed using ANOVA for multiple data sets and Student's t-test for paired comparisons. When appropriate, this was followed by Dunnett's post hoc. […] The Mann-Whitney test was used for Western blot densitometry data. For all comparisons, p<0.05 was considered statistically significant. All values are expressed as mean±SEM.
# normal rats = details: cited from earlier work
# [2] = solutions containing Tempol; cited from earlier work
# [3] = reported, in contrast to early stage 2K,1C rats; similar results in a hypercholesterolemic pig model; cited from earlier work
# sham rats = assay: Acute interventions in anesthetized age-matched sham rats: MAP, cortical blood flow and renal pO2; type: in vivo, Sprague-Dawley rats
# Protocol: as §1, §2
# Twelve months after clipping, all rats were anesthetized with Inactin (100 mg·kg^−1 i.p.; Sigma-Aldrich, St. Louis, Mo.), and an endotracheal tube was inserted for spontaneous respiration. […] The left kidney was immobilized in a plastic cup while renal cortical pO2 and cortical blood flow (CBF) were measured with O2 microelectrodes (Unisense, Aarhus, Denmark) and laser-Doppler needle probes (Transonic Systems Inc, Ithaca, N.Y.) as described in Palm et al., Diabetologia, 46:1153-1160 (2003); Palm et al., Hypertension, 51:345-351 (2008); and Liss et al., Pflügers Arch., 434:705-711 (1997). […]
# The data in Example 1 was analyzed using ANOVA for multiple data sets and Student's t-test for paired comparisons. […] All values are expressed as mean±SEM.
# essential hypertension = details: cited from earlier work
# [4] = test system: 2K,1C Goldblatt rats in the early stages of renal hypertension; details: early stage 2K,1C Goldblatt rats; prolonged administration; cited from earlier work
# [5] = acute i.v. bolus + infusion of the agent alone
# [6] = clipped kidney, agent alone, listed as tempol
compound,measurement,setting,value
"Cc1cc(Cn2cnc3c2C[C@@H](C(=O)O)N(C(=O)C(c2ccccc2)c2ccccc2)C3)ccc1N(C)C [PD-123,319, reference compound]",mean arterial blood pressure (MAP),[1]; [5],unaffected
same,renal cortical blood flow (CBF),"[1]; clipped kidney, agent alone","Neither candesartan nor PD-123,319 alone changed CBF significantly"
same,mean arterial pressure or kidney function,normal rats,has not been found to change mean arterial pressure or kidney function
"CC1(C)CC(O)CC(C)(C)N1[O] [Tempol, 4-hydroxy-2,2,6,6-tetramethyl-1-piperidine-1-oxyl]",stability of solutions left in sunlight,[2],discolor when left in sunlight
same,"renal blood flow, cortical perfusion or GFR",[3],"failed to improve renal blood flow, cortical perfusion or GFR"
same,renal cortical pO2,sham rats,not effective
same,anti-hypertensive effect,essential hypertension,demonstrated anti-hypertensive effect
same,mean arterial blood pressure (MAP),[1]; [5],lowers MAP; also recorded: more effective in lowering MAP
same,mean arterial blood pressure (MAP),"[1]; acute i.v. bolus + infusion of the agent alone, listed as tempol",significantly more effective
same,renal cortical blood flow (CBF),"[1]; clipped kidney, agent alone",effectively increases both the cortical blood flow and the tissue pO2
same,renal cortical pO2,"[1]; clipped kidney, agent alone",effectively increases both the cortical blood flow and the tissue pO2
same,renal medullary pO2,"[1]; clipped kidney, agent alone",effectively increases both the cortical blood flow and the tissue pO2
same,renal cortical blood flow (CBF),[1]; [6],increased
same,renal cortical pO2,[1]; [6],increased the cortical pO2
same,renal medullary pO2,[1]; [6],increased the medullary pO2
same,glomerular filtration rate (GFR),[4],improved the glomerular filtration rate (GFR)
same,mean arterial pressure (MAP),[4],reduced mean arterial pressure (MAP)
same,oxygen tension (pO2) of the clipped kidney,[4],improved oxygen tension (pO2) of the clipped kidney
same,renal blood flow,[4],improved renal blood flow
"C[C@H](N[C@@H](CCc1ccccc1)C(=O)O)C(=O)N1CCC[C@H]1C(=O)O [enalaprilat, reference compound]",renal cortical pO2,sham rats,increased cortical pO2
same,renal cortical blood flow (CBF),[1]; enalaprilat after tempol,did not change further
same,renal medullary pO2,[1]; enalaprilat after tempol,did not change the medullary pO2 further
same,renal cortical blood flow (CBF),[1]; enalaprilat following candesartan,reduced significantly
same,mean arterial blood pressure (MAP),"[1]; enalaprilat given 30 minutes after PD-123,319",did reduce the MAP
same,mean arterial blood pressure (MAP),[1]; enalaprilat given 30 minutes after candesartan,did not produce a further fall in MAP
same,mean arterial blood pressure (MAP),[1]; enalaprilat given 30 minutes after tempol,did not produce a further fall in MAP
same,renal cortical pO2,[1]; tempol followed by enalaprilat,not changed significantly

# — patent US20110130421A1, “Methods and Compositions for the Treatment of Chronic Renal Hypertension” (Georgetown University, priority 2009, published 2011)
